The test system of one series is normal ECG in rats. Put plainly: Effect on a normal electrocardiogram in rats. As to conditions: for effect on the heart rate during the ECG recording / HR—heart rate / PQ interval / QRS complex / QTc (Bazzett's formula) / decrease of the heart rate: 5 mg/kg iv; for HR—heart rate / PQ interval / QRS complex / QTc (Bazzett's formula): mean ± SD; for PQ interval / QRS complex / QTc (Bazzett's formula): in ms (unit assumed); for dose affecting the heart rate relative to the ED50 value in the adrenaline-induced arrhythmia model: 5 mg/kg iv vs ED50. It counts as in vivo, rat. How it is done:
The procedure was performed to exclude the negative effects of the tested compounds on the normal ECG, according to the method described earlier. […] Firstly, animals were anesthetized with thiopental (75 mg/kg ip). […] The influence on PQ, QTc interval, QRS complex, and heart rate was evaluated. The Bazzett’s formula: QTc = QT/√RR was used to calculate QTc. All the studied compounds were administered at a dose of 5 mg/kg.

Series [1] relates to adrenaline-induced arrhythmia model in rats. Put plainly: Therapeutic antiarrhythmic activity in adrenaline-induced arrhythmia. The following applies: number of animals with event.
Description: The experiments were carried out according to the method described by Szekeres and Papp [71]. The heart rhythm disturbances, such as extrasystoles, conduction blocks, and bradycardia, were induced by iv injection of adrenaline (20 µg/kg) to anesthetized rats (thiopental, 75 mg/kg, ip). […] The Aspel ASCARD apparatus (standard II lead, with a tape of speed 50 mm/s and voltage calibration of 1 mV = 1 cm) was used for the ECG measurements. The ECG was recorded during the first 2 min and in the 5th, 10th, and 15th min after the adrenaline injection (Figure 3B). The lack or decreased amount of extrasystoles, atrioventricular blocks, and bradycardia in the ECG recordings compared to the control group was the criterion of antiarrhythmic activity [72].
Automated ECG waveform analysis was evaluated as described earlier [55], using Eleven Maze software version 0.1 from Eleven Products Sp. z o.o. […] The software, under expert supervision, recognized and classified the heart rhythm irregularities. It also calculated PQ, QRS, QTc, and rate parameters.
Where [2] appears, read: 0 min (prior to administration).
Setting [3] is: 5 mg/kg iv immediately after adrenaline 20 µg/kg.
Where [4] appears, read: 1 mg/kg iv immediately after adrenaline 20 µg/kg.

Structures are written as SMILES.

With `COc1ccccc1N1CCN(Cc2ccc(COc3ccccc3C(N)=O)cc2)CC1.Cl` [JJGW12, 2-[(4-{[4-(2-metoxyphenyl)piperazin-1-ylo]methyl}phenyl)metoxy}benzamide hydrochloride], in the series on normal ECG in rats, the “effect on the heart rate during the ECG recording” value (from here on “effect”) is “did not affect the heart rate”. Moreover, in the series on normal ECG in rats (setting [2]), the “HR—heart rate” value stood at 254.6 ± 41.2, the PQ interval is given as 44.1 ± 6.2, the QRS complex turned out to be 41.9 ± 2.1 and the “QTc (Bazzett's formula)” value worked out at 190.8 ± 15.2. Besides, in the series with normal ECG in rats (5 min), the “HR—heart rate” value turned out to be 256.8 ± 47.1, the PQ interval was determined as 43.6 ± 1.2, the QRS complex is listed as 44.5 ± 3.6 and the “QTc (Bazzett's formula)” value was found to be 194.3 ± 16.8. In the series on normal ECG in rats (10 min), the “HR—heart rate” value is given as 255.2 ± 53.6, the PQ interval worked out at 45.9 ± 2.4, the QRS complex turned out to be 44.2 ± 2.3 and the “QTc (Bazzett's formula)” value came out at 190.3 ± 25.9. Also, in the series with normal ECG in rats (15 min), the “HR—heart rate” value is given as 250.2 ± 51.5, the PQ interval is 45.5 ± 3.1, the QRS complex was 45.2 ± 5.9 and the “QTc (Bazzett's formula)” value was determined as 195.8 ± 25.5. Also, in series [1] (setting [3]), the Blocks is listed as 6/6, the Bradycardia is listed as 6/6 and the Mortality was 6/6.

Regarding `Cl.NC(=O)c1ccccc1OCCCCCCN1CCN(c2cccc(Cl)c2)CC1` [JJGW03, 2-{6-[4-(3-chlorophenyl)piperazin-1-ylo]hexoxy}benzamide hydrochloride], the “effect” value in the series with normal ECG in rats is on record as “did not affect the heart rate”. In the series with normal ECG in rats (setting [2]), the “HR—heart rate” value turned out to be 286.6 ± 45.7, the PQ interval was determined as 41.6 ± 2.3, the QRS complex is 39.6 ± 4.7 and the “QTc (Bazzett's formula)” value was 177.6 ± 12.0. In the series with normal ECG in rats (5 min), the “HR—heart rate” value was determined as 289.1 ± 20.2, the PQ interval was 41.4 ± 1.6, the QRS complex is reported as 39.3 ± 3.9 and the “QTc (Bazzett's formula)” value is given as 188.7 ± 16.3. For the same molecule, in the series on normal ECG in rats (10 min), the “HR—heart rate” value came to 279.9 ± 15.7, the PQ interval turned out to be 40.2 ± 1.7, the QRS complex amounted to 40.8 ± 7.1 and the “QTc (Bazzett's formula)” value came out at 174.8 ± 7.3. In the series with normal ECG in rats (15 min), the “HR—heart rate” value is 271.9 ± 18.2, the PQ interval turned out to be 40.0 ± 0.5, the QRS complex turned out to be 40.4 ± 5.2 and the “QTc (Bazzett's formula)” value is on record as 178.1 ± 15.0. Also, in series [1] (setting [3]), the Blocks is on record as 3/5, the Bradycardia was 1/5 and the Mortality was 0/5.

In the case of `Cl.NC(=O)c1ccccc1OCCCCN1CCN(c2cccc(Cl)c2)CC1` [JJGW01, 2-{4-[4-(3-chlorophenyl)piperazin-1-ylo]butoxy}benzamide hydrochloride], the “effect” value in the series on normal ECG in rats is “did not affect the heart rate”. Further, in the series with normal ECG in rats (setting [2]), the “HR—heart rate” value is 311.8 ± 11.6, the PQ interval amounted to 42.3 ± 3.4, the QRS complex came to 49.3 ± 7.8 and the “QTc (Bazzett's formula)” value worked out at 196.0 ± 14.2. In the series on normal ECG in rats (5 min), the “HR—heart rate” value is reported as 318.0 ± 28.5, the PQ interval is reported as 42.3 ± 2.0, the QRS complex was found to be 46.7 ± 5.6 and the “QTc (Bazzett's formula)” value worked out at 193.7 ± 14.9. In the series with normal ECG in rats (10 min), the “HR—heart rate” value stood at 324.6 ± 23.1, the PQ interval amounted to 41.3 ± 2.4, the QRS complex amounted to 48.0 ± 4.2 and the “QTc (Bazzett's formula)” value is on record as 186.6 ± 9.0. In the series on normal ECG in rats (15 min), the “HR—heart rate” value was 324.0 ± 23.1, the PQ interval turned out to be 41.0 ± 3.3, the QRS complex worked out at 50.3 ± 4.6 and the “QTc (Bazzett's formula)” value was 190.6 ± 14.5. For the same molecule, in series [1] (setting [4]), the Blocks is 3/5, the Bradycardia was 2/5 and the Mortality is reported as 0/5.

Turning to `Cl.NC(=O)c1ccccc1OCCCCCN1CCN(c2cccc(Cl)c2)CC1` [JJGW02, 2-{5-[4-(3-chlorophenyl)piperazin-1-ylo]pentoxy}benzamide hydrochloride], in the series with normal ECG in rats, the “dose affecting the heart rate relative to the ED50 value in the adrenaline-induced arrhythmia model” value turned out to be 11 fold. In addition, in the series on normal ECG in rats (setting [2]), the “HR—heart rate” value was 311.1 ± 24.4, the PQ interval came out at 42.6 ± 2.0, the QRS complex amounted to 36.0 ± 1.1 and the “QTc (Bazzett's formula)” value was found to be 183.3 ± 7.1. Besides, the “decrease of the heart rate” value in the series on normal ECG in rats (5th min after the injection) was 10%. For the same molecule, the “decrease of the heart rate” value in the series with normal ECG in rats (10th min after the injection) worked out at 15%. For the same molecule, the “decrease of the heart rate” value with normal ECG in rats (15th min after the injection) was 16%. Besides, in the series on normal ECG in rats (5 min), the “HR—heart rate” value was determined as 278.7 ± 37.0, the PQ interval is 41.7 ± 1.8, the QRS complex was 35.2 ± 1.2 and the “QTc (Bazzett's formula)” value turned out to be 175.4 ± 14.0. In addition, in the series with normal ECG in rats (10 min), the “HR—heart rate” value stood at 265.0 ± 30.1, the PQ interval is 42.2 ± 1.6, the QRS complex was 36.1 ± 1.8 and the “QTc (Bazzett's formula)” value was 173.2 ± 15.7. Also, in the series with normal ECG in rats (15 min), the “HR—heart rate” value is given as 262.0 ± 37.3, the PQ interval came to 44.8 ± 5.9, the QRS complex is reported as 35.2 ± 0.7 and the “QTc (Bazzett's formula)” value is 175.1 ± 16.0. In series [1] (setting [3]), the Blocks is listed as 1/6, the Bradycardia is reported as 2/6 and the Mortality is 1/6.

Regarding `COc1ccccc1N1CCN(Cc2cccc(COc3ccccc3C(N)=O)c2)CC1.Cl` [JJGW11, 2-[(3-{[4-(2-metoxyphenyl)piperazin-1-ylo]methyl}phenyl)metoxy}benzamide hydrochloride], the “dose affecting the heart rate relative to the ED50 value in the adrenaline-induced arrhythmia model” value with normal ECG in rats is 26 fold. In addition, in the series with normal ECG in rats (setting [2]), the “HR—heart rate” value is 281.3 ± 50.8, the PQ interval was determined as 45.8 ± 7.2, the QRS complex amounted to 38.5 ± 3.6 and the “QTc (Bazzett's formula)” value came to 188.2 ± 12.3. The “decrease of the heart rate” value with normal ECG in rats (10th min after the injection) was determined as 8%. In the series on normal ECG in rats (15th min after the injection), the “decrease of the heart rate” value is 10%. Further, in the series with normal ECG in rats (5 min), the “HR—heart rate” value amounted to 266.5 ± 58.2, the PQ interval is given as 47.1 ± 5.7, the QRS complex came to 41.3 ± 3.0 and the “QTc (Bazzett's formula)” value is on record as 197.3 ± 18.6. Also, in the series with normal ECG in rats (10 min), the “HR—heart rate” value came to 258.8 ± 55.0, the PQ interval was 47.4 ± 5.0, the QRS complex turned out to be 42.4 ± 4.3 and the “QTc (Bazzett's formula)” value stood at 193.6 ± 22.0. Further, in the series on normal ECG in rats (15 min), the “HR—heart rate” value came to 252.4 ± 50.3, the PQ interval is listed as 47.6 ± 5.1, the QRS complex is on record as 41.7 ± 5.4 and the “QTc (Bazzett's formula)” value is 184.1 ± 16.9. Moreover, in series [1] (setting [4]), the Blocks is listed as 2/5, the Bradycardia is given as 1/5 and the Mortality is 0/5.

The values are drawn from PMC9820316, “Novel Arylpiperazine Derivatives of Salicylamide with α1-Adrenolytic Properties Showed Antiarrhythmic and Hypotensive Properties in Rats” (International Journal of Molecular Sciences, 2022).
